Counter-ions that a name gives are not always drawn.
Row | Compound | melting point [°C]
1 | CC(=O)NCCOCc1ccc(-c2ccc(=O)n(Cc3ccc(Cl)cc3)c2)cc1 [2-42, N-(2-(4-(1-(4-Chlorobenzyl)-6-oxo-1,6-dihydropyridin-3-yl)benzyloxy)ethyl)acetamide] | 152
2 | COC(=O)c1ccc(-c2ccc(=O)n(Cc3ccc(Cl)cc3)c2)cc1 [2-33] | 175
3 | CN(C)C(=O)c1ccc(-c2ccc(=O)n(Cc3ccc(Cl)cc3)c2)cc1 [2-43] | 176
4 | CCCOc1ccc(-c2ccc(=O)n(Cc3ccccc3)c2)cc1 [1-17] | 88
5 | COc1ncc(-c2ccc(=O)n(Cc3ccc(Cl)cc3)c2)cn1 [2-66] | 191
6 | O=c1ccc(-c2ccc(CCCO)cc2)cn1Cc1ccc(Cl)cc1 [2-16, 1-(4-Chlorobenzyl)-5-(4-(3-hydroxypropyl)phenyl)pyridin-2(1H)-one] | 165
7 | O=c1ccc(-c2ccc(O)cc2)cn1Cc1ccccc1 [1-13] | 202
8 | O=c1ccc(-c2ccc(O)cc2)cn1Cc1ccc(Cl)cc1 [2-13] | 202
9 | Cl.Nc1ccc(-c2ccc(=O)n(Cc3ccc(Cl)cc3F)c2)cc1 | 266
10 | CCOc1ccccc1-c1ccc(=O)n(Cc2ccc(Cl)cc2)c1 [2-20] | 120 to 121
11 | O=c1ccc(C2CCCCC2)cn1Cc1ccc(Cl)cc1 [2-01, 1-(4-Chlorobenzyl)-5-cyclohexylpyridin-2(1H)-one] | 72
12 | COc1ccc(-c2ccc(=O)n(Cc3ccc(Cl)cc3)c2)cc1N [2-37] | 175

The remaining lines, values ahead:

Row | melting point [°C] | Compound
13 | 127 | CC(=O)COc1ccc(-c2ccc(=O)n(Cc3ccc(Cl)cc3F)c2)cc1 [6-40, 1-(4-Chloro-2-fluorobenzyl)-5-(4-(2-oxopropoxy)phenyl)pyridin-2(1H)-one]
14 | 141 | O=c1ccc(-c2ccc(S(=O)(=O)N3CCOCC3)cc2)cn1Cc1ccc(Cl)cc1F [6-74]
15 | 85 | COCc1ccc(-c2ccc(=O)n(Cc3ccc(F)c(F)c3)c2)cc1 [6-11]
16 | 176 | O=c1ccc(-c2ccc(CO)cc2)cn1Cc1ccc(Cl)cc1F [6-26]
17 | 107 | CCCOc1ccc(-c2ccc(=O)n(Cc3ccc(Cl)cc3F)c2)cc1 [6-32]
18 | 89 | O=c1ccc(COc2ccccc2)cn1Cc1ccc(F)c(F)c1 [16-03, 1-(3,4-Difluorobenzyl)-5-(phenoxymethyl)pyridin-2(1H)-one]
19 | 253 | NCCCOc1ccc(-c2ccc(=O)n(Cc3ccc(Cl)cc3F)c2)cc1 [6-43]
20 | 110 | O=c1ccc(-c2ccc3sccc3c2)cn1Cc1ccc(Cl)cc1F [6-69, 1-(4-Chloro-2-fluorobenzyl)-5-(benzo[b]thiophen-5-yl)pyridin-2(1H)-one]
21 | 157 | CS(=O)(=O)NCCCOc1ccc(-c2ccc(=O)n(Cc3ccc(Cl)cc3F)c2)cc1 [6-71]
22 | 82 to 84 | COc1ccc(-c2ccc(=O)n(Cc3ccc(C(F)(F)F)c(F)c3)c2)cc1 [4-35]
23 | 145 to 148 | COc1ccc(-c2ccc(=O)n(Cc3ccc4ccccc4c3)c2)cc1 [4-38]
24 | 141 | COc1ccc(-c2ccc(=O)n(Cc3ccc(Cl)cc3F)c2)cc1OC [6-31]
25 | 110 | CS(=O)(=O)NCc1cccc(-c2ccc(=O)n(Cc3ccc(Cl)cc3F)c2)c1 [6-72]
26 | 126 | COc1ccc(-c2ccc(=O)n(Cc3ccc(OC)nc3)c2)cc1 (as salt: HCl) [4-46]
27 | 112 to 113 | Cc1ccc(-c2ccc(=O)n(Cc3cccc(F)c3)c2)cc1 [6-04]
